Source: patent US10947229B2, “Dimethyl amino azetidine amides as JAK inhibitors” (THERAVANCE BIOPHARMA R&D IP, LLC, priority 2018, dated 2021)

Tests used:
[1] = Lung and plasma drug concentration in the IL-13 pSTAT6 mouse model; assay type: in vivo; settings: lung to plasma ratio at 5 hours
Protocol: Adult Balb/c mice from Harlan were used in the assay. […] Animals were placed in lateral recumbency post dose and monitored for full recovery from anesthesia before being returned to their home cage. Four hours later, animals were once again briefly anesthetized and challenged with either vehicle or IL-13 (0.03 μg total dose delivered, 50 μL total volume) via oral aspiration before being monitored for recovery from anesthesia and returned to their home cage. One hour after vehicle or IL-13 administration, whole blood and lungs were collected for both pSTAT6 detection in lung homogenates using a Perkin Elmer AlphaLISA® SureFire® Ultra™ HV p-STAT6 (Tyr641) assay kit and for total drug concentration analysis in both lung and plasma. Blood samples were centrifuged (Eppendorf centrifuge, 5804R) for 4 minutes at approximately 12,000 rpm at 4° C. to collect plasma. […] Plasma and lung levels of test compound were determined by LC-MS analysis against analytical standards constructed into a standard curve in the test matrix. A lung to plasma ratio was determined as the ratio of the lung concentration in ng/g to the plasma concentration in ng/mL at 5 hours.

[2] = Pharmacokinetics in plasma and lung in mouse; assay type: in vivo; settings: single oral aspiration, 0.2 mg/mL, 50 μL
Protocol: Plasma and lung concentrations of test compounds and ratios thereof were determined in the following manner. BALB/c mice from Charles River Laboratories were used in the assay. Test compounds were individually formulated in 20% propylene glycol in pH 4 citrate buffer at a concentration of 0.2 mg/mL and 50 μL of the dosing solution was introduced into the trachea of a mouse by oral aspiration. At various time points (typically 0.167, 2, 6, 24 hr) post dosing, blood samples were removed via cardiac puncture and intact lungs were excised from the mice.

[3] = system: IFNγ induced CXCL10 secretion; assay: Inhibition of IFNγ induced CXCL10 in human 3D airway cultures; assay type: cell-based; settings: 192 h, 8 days, 4 donors
Protocol: (§1) EpiAirway tissue cultures were obtained from Mattek (AIR-100). Cultures were derived from asthmatic donors. In a cell culture insert, human derived tracheal/bronchial epithelial cells were grown and differentiated on a porous membrane support, allowing an air-liquid interface with warmed culture medium below the cells and a gaseous test atmosphere above. Tissues were cultured in maintenance media ([…]) in a 37° C., 5% CO2 humidified incubator. Four donors were tested. On Day 0, tissue cultures were treated with test compounds in liquid interface at 10 μM, 1 μM and/or 0.1 μM. Compounds were diluted in dimethyl sulfoxide (DMSO, Sigma) to a final concentration of 0.1%. DMSO at 0.1% was used as a vehicle control. […] Tissue cultures were maintained for 8 days. Media was replaced every 2 days with fresh media containing compounds and IFNγ or IL-27. On Day 8, tissue cultures and supernatants were collected for analysis. Supernatant samples were assayed for CXCL10 (IP-10) and CXCL9 (MIG) using luminex analysis (EMD Millipore). Data is expressed as % Inhibition+/-standard deviation (±STDV). Percent inhibition was determined by compound inhibitory potency against IFNγ or IL-27 induced CXCL10 or CXCL9 secretion compared to vehicle treated cells. Data is the average from 4 donors.

[4] = system: IL-27 induced CXCL10 secretion; assay: Inhibition of IL-27 induced CXCL10 in human 3D airway cultures; assay type: cell-based; settings: 192 h, 8 days, 4 donors
Protocol: as §1

[5] = system: IFNγ secretion in mixed lymphocyte reaction; assay: Inhibition of IFNγ secretion in a mixed lymphocyte reaction assay; assay type: cell-based, human
Protocol: The mixed lymphocyte reaction assay is an in-vitro assay that mimics transplant rejection. T cells from one donor are cultured with allogeneic dendritic cells from another donor. This reaction induces a cellular immune response such as IFNγ secretion. CD14+ monocytes were isolated from human whole blood (Stanford blood center) of donor A using a ficoll gradient and magnetic seperation (CD14 microbeads, Miltenyi). […] Cells were harvested, washed with media, re-suspended to 400,000 cells/ml in media and plated at 10,000 cells/well/25 μl. CD4+ T cells were freshly isolated from human whole blood (Stanford blood center) of donor B using a ficoll gradient and magnetic separation (CD4+ T cell isolation kit, Miltenyi). T cells were re-susepended to 4,000,000 cells/ml in RPMI (Life Technologies) supplemented with 10% Fetal Bovine Serum (FBS, Life Technologies), 2 mM Glutamax (Life Technologies), 25 mM HEPES (Life Technologies) and 1× Pen/Strep (Life Technologies). CD4+ T cells were mixed with the dendritic cells at 100,000 cells/well/25 μl. Cells were treated with test compounds (50 μl at 20 μM, 2 μM and/or 0.2 μM) to a final concentration of 10 μM, 1 μM and/or 0.1 μM. Compounds were diluted in dimethyl sulfoxide (DMSO, Sigma) to a final concentration of 0.1%. DMSO at 0.1% was used as a vehicle control. Cells were maintained for 5 days in a 37° C., 5% CO2 humidified incubator. On day 5, supernatants were collected and measured for interferon gamma (INFγ) using enzyme linked immunosorbent assay (ELISA). Percent inhibition was determined by compound inhibitory potency against IFNγ secretion compared to vehicle treated cells. Data is the average from 4 donors.

## CCc1cc(O)ccc1-c1ccc2c(-c3nc4c([nH]3)CN(C(C)C)[C@H](C(=O)N3CC(N(C)C)C3)C4)n[nH]c2c1 [Compound 1, (S)-(3-(dimethylamino)azetidin-1-yl)(2-(6-(2-ethyl-4-hydroxyphenyl)-1H-indazol-3-yl)-5-isopropyl-4,5,6,7-tetrahydro-3H-imidazo[4,5-c]pyridin-6-yl)methanone]
[1]
  exposure in lung versus plasma (in words): significantly more exposure in the lung than exposure in plasma
[2]; BALB/c, in vivo, 10 µg/animal, read-out: Plasma AUC(0-24)
  AUC(0-t): 943 ng·h/mL
[2]
  Lung Tissue AUC(0-24): 54.5 µg·h/g
[3]; 0.1 μM
  inhibition at 0.1 µM: 18%
[3]; 1 μM
  inhibition at 1 µM: 76%
[3]; 10 μM
  inhibition at 10 µM: 100%
[4]; 0.1 μM
  inhibition at 0.1 µM: 25%
[4]; 1 μM
  inhibition at 1 µM: 98%
[4]; 10 μM
  inhibition at 10 µM: 100%
[5]; Homo sapiens, Lymphocyte, 120 h, 0.1 μM, 5 days, 4 donors
  inhibition at 0.1 µM: 43%
[5]; Homo sapiens, Lymphocyte, 120 h, 10 μM, 5 days, 4 donors
  inhibition at 10 µM: 99%
[5]; Homo sapiens, Lymphocyte, 120 h, printed "at μM" (middle concentration, 1 μM in the method), 5 days, 4 donors
  inhibition at 1 µM: 76%
[5]; mixed lymphocyte reaction
  inhibition of IFNγ secretion (in words): effectively inhibit IFNγ secretion
